Here are results for 35 compounds from patent US10399932B2, “Inhibitors of indoleamine-2,3-dioxygenase for the treatment of cancer” (BRISTOL-MYERS SQUIBB COMPANY, priority 2015, dated 2019).

Where only a bound is given, the exact number is not on record here.

This assay concerns the target human IDO1 (Homo sapiens, UniProt P14902). The assay can be described thus: Assessment of human IDO-1 inhibitory activity in HEK cells (human IDO1/HEK293 cells, Ehrlich reagent, absorbance at 490 nm). Type of assay: cell-based. More on the design: expressed in transfected cells. The following applies: In Vitro Potency in the HEK Human IDO-1 Cellular Assay. The procedure:
Exemplary compounds were tested for inhibition of IDO activity.
HEK293 cells were transfected with a pCDNA-based mammalian expression vector harboring human IDO1 cDNA (NM 002164.2) by electroporation. They were cultured in medium (DMEM with 10% FBS) containing 1 mg/ml G418 for two weeks. Clones of HEK293 cells that stably expressed human IDO1 protein were selected and expanded for IDO inhibition assay.
The human IDO1/HEK293 cells were seeded at 10,000 cells per 50 μL per well with RPMI/phenol red free media contains 10% FBS in a 384-well black wall clear bottom tissue culture plate (Matrix Technologies LLC) 100 nL of certain concentration of compound was then added to each well using ECHO liquid handling systems. The cells were incubated for 20 hours in 37° C. incubator with 5% CO2.
The compound treatments were stopped by adding trichloroacetic acid (Sigma-Aldrich) to a final concentration at 0.2%. The cell plate was further incubated at 50° C. for 30 minute. The equal volume supernatant (20 μL) and 0.2% (w/v) Ehrlich reagent (4-dimethylaminobenzaldehyde, Sigma-Aldrich) in glacial acetic acid were mixed in a new clear bottom 384-well plate. This plate was then incubated at room temperature for 30 minute. The absorbance at 490 nm was measured on Envision plate reader.
Compound IC50 values were calculated using the counts of 500 nM of a reference standard treatment as one hundred percent inhibition, and counts of no compound but DMSO treatment as zero percent inhibition.

human IDO1, sequence (P14902 whole entry): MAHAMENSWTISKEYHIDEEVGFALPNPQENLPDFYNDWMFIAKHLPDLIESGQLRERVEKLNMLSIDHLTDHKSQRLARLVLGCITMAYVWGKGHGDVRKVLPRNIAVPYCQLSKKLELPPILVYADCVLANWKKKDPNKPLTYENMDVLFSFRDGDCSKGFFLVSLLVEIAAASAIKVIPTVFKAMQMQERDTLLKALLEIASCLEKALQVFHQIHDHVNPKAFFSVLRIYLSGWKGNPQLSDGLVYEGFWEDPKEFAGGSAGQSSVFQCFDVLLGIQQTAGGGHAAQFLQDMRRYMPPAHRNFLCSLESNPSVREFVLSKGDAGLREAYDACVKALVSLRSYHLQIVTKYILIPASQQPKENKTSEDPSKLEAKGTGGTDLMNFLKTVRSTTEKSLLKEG

One may read the IC50 as the concentration that gives 50% inhibition. The low end stands for higher potency, the high end for lower potency. As for “3-(4-((1,1-dioxidotetrahydro-2H-thiopyran-4-yl)(ethyl)amino)-3-((4-fluorophenyl)amino)phenyl)-4-isopropoxybutanoic acid [Example 300]”, the concentration for half-maximal inhibition (IC50) was less than 50 nM.

Consider `COCC(CC(=O)O)c1ccc(N(CC(C)C)C2CCC(OC)CC2)c(NC(=O)Nc2ccc(Cl)cc2F)c1` (racemic) [Example 1006, (+/−)-3-(3-(3-(4-Chloro-2-fluorophenyl)ureido)-4-(isobutyl((1r,4r)-4-methoxycyclohexyl)amino)phenyl)-4-methoxybutanoic acid], for which the half-maximal inhibitory concentration (IC50) was less than 5 nM.

Compound `CCC(CC(=O)O)c1ccc(N(CC(C)C)C2CCCCC2)c(NC(=O)Cc2ccc(C)cc2)c1` (racemic) [Example 1084] had an IC50 of less than 5 nM.

On to `CCC(CC(=O)O)c1ccc(N(CC(C)C)C2CCCCC2)c(NC(=O)Cc2ccc(C#N)cc2)c1` (racemic) [Example 1086], for which the IC50 is less than 5 nM.

For the compound `CCC(CC(=O)O)c1ccc(N(CCC(C)C)C2CCCCC2)c(NC(=O)Cc2ccc(F)cc2)c1` (racemic) [Example 1089], the IC50 was more than 50 nM.

As to `CCC(CC(=O)O)c1cc(F)c(N(CC(C)C)C2CCCCC2)c(NC(=O)Nc2ccc(C)cc2)c1` (racemic) [Example 1091], the half-inhibitory concentration (IC50) was less than 5 nM.

Take `COCC(CC(=O)O)c1ccc(N(CC(C)C)C2CCC(OC)CC2)c(NC(=O)Nc2ccc(C)cc2)c1` (racemic) [Example 1147]: the concentration for half-maximal inhibition (IC50) is less than 50 nM.

`COCC(CC(=O)OC)c1ccc(N(CC(C)C)C2CCC(OC)CC2)c(NC(=O)Nc2ccc(Cl)cc2F)c1` (racemic) [Example 1148] registered a half-maximal inhibitory concentration (IC50) of more than 50 nM.

On to `CCC(CC(=O)O)c1ccc(N2CC3CC2CN3Cc2ccccc2)c(NC(=O)Nc2ccc(C)cc2)c1` (single isomer, unassigned) [667 E1], for which the IC50 was more than 50 nM.

Turning to `CCC(CC(=O)O)c1ccc(N2CC3CC2CN3Cc2ccccc2)c(NC(=O)Nc2ccc(C)cc2)c1` (single isomer, unassigned) [667 E2], the 50% inhibitory concentration (IC50) is more than 50 nM.

`COCC(CC(=O)O)c1ccc(N(CC(C)C)C2CCCCC2)c(NC(=O)Nc2ccccc2F)c1` (single isomer, unassigned) [1125 E1] showed a concentration for half-maximal inhibition (IC50) of less than 5 nM.

On to `COCC(CC(=O)O)c1ccc(N(CC(C)C)C2CCCCC2)c(NC(=O)Nc2ccccc2F)c1` (single isomer, unassigned) [1125 E2], for which the IC50 is less than 5 nM.

Consider `Cc1ccc(NC(=O)Nc2cc(C(CC(=O)O)C3CC3)ccc2N(CC(C)C)C2CCOCC2)cc1` (single isomer, unassigned) [1202 E1], for which the IC50 is less than 5 nM.

As for `Cc1ccc(NC(=O)Nc2cc(C(CC(=O)O)C3CC3)ccc2N(CC(C)C)C2CCOCC2)cc1` (single isomer, unassigned) [1202 E2], the IC50 is less than 5 nM.

`CC(CC(=O)O)c1ccc(N(CC(C)(C)O)C2CCCCC2)c(Nc2ccc(Cl)c(OCC(F)(F)F)c2)c1` (single isomer, unassigned) [Example 55, 3-(3-((4-chloro-3-(2,2,2-trifluoroethoxy)phenyl)amino)-4-(cyclohexyl(2-hydroxy-2-methylpropyl)amino)phenyl) butanoic acid] came in with an IC50 of more than 50 nM.

On to `CCOc1ncc(Nc2cc(C(CC)CC(=O)O)ccc2N(CC)C2CCCOC2)cn1` (single isomer, unassigned) [Example 72, 3-(3-((2-ethoxypyrimidin-5-yl)amino)-4-(ethyl(tetrahydro-2H-pyran-3-yl)amino)phenyl)pentanoic acid], for which the IC50 is less than 5 nM.

The compound `CCC(CC(=O)O)c1cc(F)c(N(CC(C)C)CC(C)C)c(Nc2ccc3nc(C)sc3c2)c1` (single isomer, unassigned) [Example 111, 3-(4-(diisobutylamino)-3-fluoro-5-((2-methylbenzo [d]thiazol-6-yl)amino)phenyl)pentanoic acid] showed a half-inhibitory concentration (IC50) of more than 50 nM.

Consider `CCc1ccc(Nc2cc(C(CC)CC(=O)O)cc(F)c2N(CC(C)C)CC(C)C)cc1` (single isomer, unassigned) [Example 112, 3-(4-(diisobutylamino)-3-((4-ethylphenyl)amino)-5-fluorophenyl)pentanoic acid], for which the IC50 is less than 50 nM.

`CCOc1ccc(Nc2cc(C(CC)CC(=O)O)cc(F)c2N(CC(C)C)CC(C)C)cc1` (single isomer, unassigned) [Example 113, 3-(4-(diisobutylamino)-3-((4-ethoxyphenyl)amino)-5-fluorophenyl)pentanoic acid]: the IC50 is less than 50 nM.

As for `CCC(CC(=O)O)c1cc(F)c(N(CC(C)C)CC(C)C)c(Nc2ccc(OCC(F)(F)F)cc2)c1` (single isomer, unassigned) [Example 114, 3-(4-(diisobutylamino)-3-fluoro-5-((4-(2,2,2-trifluoroethoxy)phenyl)amino)phenyl)pentanoic acid], the IC50 was more than 50 nM.

`CCC(CC(=O)O)c1cc(F)c(N(CC(C)C)CC(C)C)c(Nc2ccc(Cl)cc2)c1` (single isomer, unassigned) [Example 115, 3-(3-((4-chlorophenyl)amino)-4-(diisobutylamino)-5-fluorophenyl)pentanoic acid]: the IC50 was less than 5 nM.

For `CCC(CC(=O)O)c1cc(F)c(N(CC(C)C)CC(C)C)c(Nc2ccc(F)cc2)c1` (single isomer, unassigned) [Example 116, 3-(4-(diisobutylamino)-3-fluoro-5-((4-fluorophenyl)amino)phenyl)pentanoic acid], the IC50 is less than 5 nM.

Compound `CCC(CC(=O)O)c1cc(F)c(N(CC(C)C)CC(C)C)c(Nc2ccc3c(c2)OC(F)(F)O3)c1` (single isomer, unassigned) [Example 117, 3-(3-((2,2-difluorobenzo [d][1,3]dioxol-5-yl)amino)-4-(diisobutylamino)-5-fluorophenyl)pentanoic acid] came in with an IC50 of less than 5 nM.

For `CCC(CC(=O)O)c1cc(F)c(N(CC(C)C)CC(C)C)c(Nc2cnc(OC)nc2)c1` (single isomer, unassigned) [Example 120, 3-(4-(diisobutylamino)-3-fluoro-5-((2-methoxypyrimidin-5-yl)amino)phenyl) pentanoic acid], the IC50 is less than 5 nM.

`CCC(CC(=O)O)c1cc(F)c(N(CC(C)C)CC(C)C)c(Nc2ccnc(N3CCOCC3)n2)c1` (single isomer, unassigned) [Example 121, 3-(4-(diisobutylamino)-3-fluoro-5-((2-morpholinopyrimidin-4-yl)amino)phenyl) pentanoic acid] displayed an IC50 of more than 50 nM.

In turn, `CCC(CC(=O)O)c1cc(F)c(N(CC(C)C)CC(C)C)c(Nc2ccc(OCC3CC3)cc2)c1` (single isomer, unassigned) [Example 122, 3-(3-((4-(cyclopropylmethoxy)phenyl)amino)-4-(diisobutylamino)-5-fluorophenyl)pentanoic acid] gave an IC50 of less than 50 nM.

Compound `CCC(CC(=O)O)c1cc(F)c(N(CC(C)C)CC(C)C)c(Nc2ccc(C#N)cc2)c1` (single isomer, unassigned) [Example 123, 3-(3-((4-cyanophenyl)amino)-4-(diisobutylamino)-5-fluorophenyl)pentanoic acid] showed an IC50 of less than 5 nM.

For the compound `CCC(CC(=O)O)c1cc(F)c(N(CC(C)C)CC(C)C)c(NC(=O)c2ccc(Cl)cc2)c1` (single isomer, unassigned) [Example 128, 3-(3-(4-Chlorobenzamido)-4-(diisobutylamino)-5-fluorophenyl)pentanoic acid], the IC50 is more than 50 nM.

The compound `CC(C)CN(CC(C)C)c1c(F)cc(C(CC(=O)O)c2ccccc2)cc1Nc1ccc(Cl)cc1` (single isomer, unassigned) [Example 131, 3-(3-((4-chlorophenyl)amino)-4-(diisobutylamino)-5-fluorophenyl)-3-phenylpropanoic acid] returned an IC50 of less than 50 nM.

Turning to `Cc1nc2ccc(Nc3cc(C(CC(=O)O)c4ccccc4)cc(F)c3N(CC(C)C)CC(C)C)cc2s1` (single isomer, unassigned) [Example 132, 3-(4-(diisobutylamino)-3-fluoro-5-((2-methylbenzo[d]thiazol-6-yl)amino)phenyl)-3-phenylpropanoic acid], the concentration for half-maximal inhibition (IC50) is more than 50 nM.

As to `CC(CC(=O)O)c1ccc(N(CC(C)(C)O)C2CCOCC2)c(Nc2ccc(Cl)cc2)c1` (single isomer, unassigned) [Example 193, 3-(3-((4-chlorophenyl)amino)-4-((2-hydroxy-2-methylpropyl)(tetrahydro-2H-pyran-4-yl)amino)phenyl)butanoic acid], the IC50 was less than 5 nM.

Turning to `CC[C@@H](CC(=O)O)c1ccc(N(CC(C)C)C2CCS(=O)(=O)CC2)c(NC(=O)Nc2cc(C)on2)c1` (single isomer, unassigned) [Example 218], the IC50 is more than 50 nM.

Turning to `CCc1ccc(Nc2cc([C@@H](CC)CC(=O)O)ccc2N(CC(C)(C)O)C2CCCCC2)cc1` (single isomer, unassigned) [Example 228], the IC50 was less than 5 nM.

Compound `CCc1cnc(Nc2cc([C@@H](CC)CC(=O)O)ccc2N(CC)C2CCCCC2)nc1` (single isomer, unassigned) [Example 280] registered a concentration for half-maximal inhibition (IC50) of more than 50 nM.

Regarding `CCOc1ncc(Nc2cc(C(CC)CC(=O)O)ccc2N(CC(C)C)C2CCCCC2)cn1` (single isomer, unassigned) [Example 303, 3-(4-(cyclohexyl(isobutyl)amino)-3-((2-ethoxypyrimidin-5-yl)amino)phenyl)pentanoic acid], the IC50 was less than 5 nM.
